In US5840750A, “Discodermolide compounds” (priority 1996, dated 1998):

Assays:
[1] = test system: M14; assay: NCI in vitro tumor cell line panel, LC50, melanoma; format: cell-based; conditions: human melanoma (M14)
Description: (§1) Discodermolide was additionally evaluated for its anti-proliferative effects utilizing the National Cancer Institute's in vitro tumor cell line panel. The results of these analyses are shown in the mean graphs presented as FIGS. 1A-1K. The data are presented using known and accepted measurements of "Growth Inhibition-50" (GI50), where growth of 50% of the cells is inhibited; "Total Growth Inhibition" (TGI), where growth of all cells is inhibited, i.e., cytostasis; and "Lethal Concentration-50" (LC50), where 50% of the cells are killed.

[2] = test system: BMSC 8.6; assay: Constitutive proliferation of murine non-lymphoid BMSC 8.6 cells; format: cell-based; conditions: Mus musculus; BMSC 8.6 proliferation; best response
Description: (§2) ^d Bone marrow stromal cells (MBSC) derived from CS7BL/6 mice.

[3] = test system: Swiss 3TC; assay: Constitutive proliferation of murine non-lymphoid Swiss 3TC cells; format: cell-based; conditions: Mus musculus; Swiss 3TC proliferation; best response
Description: (§5) The effects of discodermolide on the inhibition of constitutive proliferation of a number of lymphoid and non-lymphoid cell lines of mouse or human origin was investigated.

[4] = test system: GI-101A human breast cells; assay: Cell cycle analysis of GI-101A human breast cells; format: cell-based; conditions: 24 hours
Experimental: (§3) Cell cycle studies were initiated in order to pinpoint a specific phase within the cell cycle in which discodermolide was exerting its antiproliferative effect. GI-101A human breast and A549 human lung cells were used as cell cycle targets to compare the effects of discodermolide and taxol on perturbation of the cell cycle. Cell cycle analyses were performed as follows: GI-101A and A549 cells were incubated at 37° C. in 10% CO2 in air in the presence or absence of varying concentrations of discodermolide or taxol (purchased from Molecular Probes, Eugene, Oreg.) for 48 hours. Cells were harvested, fixed in ethanol, and stained with 0.5 mg/ml of propidium iodide (P.I.) together with 0.1 mg/ml of RNase A. This procedure permeabilizes live cells and allows entry of P.I. to stain DNA. Stained preparations were analyzed on a Coulter EPICS ELITE with 488 nm excitation with the dead cells excluded by back-gating of P.I. preparations without detergent on forward and side scatter histograms. Fluorescence measurements and resulting DNA histograms were collected from at least 5,000 P.I. stained cells at an emission wavelength of 690 nm. Raw histogram data were further analyzed using a cell cycle analysis program (Multicycle, Phoenix Flow Systems).
Approximately 56% of the control cells comprise the G1 phase of the cell cycle, and 30% comprise the S phase. Only approximately 14% of cells are demonstrable in the G2 /M phase in asynchronous cultures at any one time mainly due to their high proliferative rate (FIG. 2A). At 24 hours post culture initiation with 100 ng/ml of discodermolide, the percentage of cells in G1 phase decreased to 22%. […] The percentage of cells in G1 decreased from 56% in the control to 27% in taxol-treated cultures.

[5] = test system: BMSC 25.4; assay: Constitutive proliferation of murine non-lymphoid BMSC 25.4 cells; format: cell-based; conditions: Mus musculus; BMSC 25.4 proliferation; best response
Description: as §2

[6] = test system: 70Z/3 Pre-B; assay: Constitutive proliferation of murine lymphoid 70Z/3 Pre-B cells; format: cell-based; conditions: Mus musculus; 70Z/3 Pre-B proliferation; best response
Description: as §5

[7] = test system: tubulin; assay: EC50 for the polymerization of tubulin; format: biochemical; conditions: additional studies
Experimental: (§4) Discodermolide was analyzed for its interactions with tubulin. Tubulin polymerization was monitored turbidimetrically at 350 nm with an electronic temperature controller. Reaction mixtures contained 0.1M 4-morpholine-ethanesulfonate (pH 6.9), 1.0 mg/ml (10 μM) electrophoretically-homogenous bovine brain tubulin freed of unbound nucleotide by gel filtration, 0.5 mg/ml heat-treated MAPs, 100 μM GTP, and 4% (v/v) dimethylsulfoxide. A concentration of 10 μM of discodermolide (curve 3) was compared with the same concentration of taxol (curve 2) and no drug (curve 1), as shown in FIG. 5.

[8] = test system: tubulin; assay: Electron micrographs of polymers of tubulin; format: biochemical; conditions: compared with control
[9] = test system: A549 human lung cells; assay: Cell cycle analysis of A549 human lung cells; format: cell-based; conditions: 48 hours
Experimental: as §3
Discodermolide and taxol were compared for their effects on the proliferation of A549 human lung cells. Cell cultures were similarly initiated in the presence and absence of various concentrations of discodermolide or taxol and incubated at 37° C. in 10% CO2 in air for 48 hours. Cells were harvested and stained and analyzed on the flow cytometer as outlined above.

[10] = test system: COLO 205; assay: NCI in vitro tumor cell line panel, LC50, colon cancer; format: cell-based; conditions: human colon cancer (COLO 205)
Description: as §1

[11] = test system: HCC-2998; assay: as above; format: cell-based; conditions: human colon cancer (HCC-2998)
Description: as §1

[12] = test system: BMSC 8.3; assay: Constitutive proliferation of murine non-lymphoid BMSC 8.3 cells; format: cell-based; conditions: Mus musculus; BMSC 8.3 proliferation; best response
Description: as §2

[13] = test system: EL-4 Thymoma; assay: Constitutive proliferation of murine lymphoid EL-4 thymoma cells; format: cell-based; conditions: Mus musculus; EL-4 Thymoma proliferation; best response
Description: as §5

[14] = test system: MCF-7 cells and MDA-MB-231 cells; assay: Growth of human breast carcinoma cells; format: cell-based; conditions: Breast carcinoma cell, results similar for both lines (MCF-7, MDA-MB-231)
Experimental: The effect of discodermolide on two human breast carcinoma cell lines, estrogen receptor positive MCF-7 cells, and estrogen receptor negative MDA-MB-231 cells, was determined. The results were compared with those obtained by treatment with taxol. Both lines were examined for drug effects on growth and by indirect immunofluorescence for effects on the microtubule cytoskeleton. The results were similar for both lines. […] These patterns appeared at concentrations as low as 10 nm.

[15] = test system: F7 Fibroblast; assay: Constitutive proliferation of murine non-lymphoid F7 fibroblasts; format: cell-based; conditions: Mus musculus, best response
Description: as §5

[16] = test system: Jurkat human leukemia cells; assay: Cell cycle analysis of Jurkat human leukemia cells; format: cell-based; conditions: 48 hours, discodermolide 100 ng/ml
Experimental: Discodermolide and taxol were compared for their effects on the proliferation of Jurkat human leukemia cells. Cell cultures were similarly initiated in the presence and absence of various concentrations of discodermolide or taxol and incubated at 37° C. in 10% CO2 in air for 48 hours. Cells were harvested and stained and analyzed on a flow cytometer using standard procedures. […] The percentage of S-phase cells in both groups increased from 25% in the control to 38% in both discodermolide- and taxol-treated cells.

[17] = test system: human tumor cell lines; assay: National Cancer Institute's in vitro tumor cell line panel; format: cell-based
Description: as §1

[18] = test system: bovine brain tubulin; assay: Tubulin polymerization monitored turbidimetrically; format: biochemical
Experimental: as §4

C=C/C=C\C(C)C(OC(N)=O)C(C)C(O)C(C)C/C(C)=C\C(C)C(O)C(C)/C=C\C(O)CC1OC(=O)C(C)C(O)C1C (single isomer, unassigned) [discodermolide]
LC50 (in words) [1]: particularly effective | IC50 [2]: 84 nM | IC50 [3]: 37 nM | effect on cell cycle progression ([4]; GI-101A): block at G2 /M phase of the cell cycle | percentage of cells in G2 /M ([4]; discodermolide 100 ng/ml, control 14%): 38% | percentage of S phase cells ([4]; discodermolide 100 ng/ml, control 30%): 41% | percentage of cells in G1 phase ([4]; discodermolide 100 ng/ml, control 56%): 22% | IC50 [5]: 59 nM | IC50 [6]: 3 nM | EC50 [7]: 2700 nM | electron micrographs of polymers of tubulin [8]: very similar characteristics, presence of polymers, microtubules, and sheets | percentage of S phase cells (in words) ([9]; control 19%): did not change significantly | percentage of cells in G2 /M ([9]; discodermolide 100 ng/ml, control 4%): 67% | percentage of cells in G1 ([9]; discodermolide 100 ng/ml, control 77%): 18% | LC50 (in words) [10]: particularly effective | LC50 (in words) [11]: particularly effective | IC50 [12]: 50 nM | IC50 [13]: 30 nM | IC50 [14]: 2.4 nM | IC50 [15]: 60 nM | percentage of cells in G2 /M ([16]; control 7%): 27% | percentage of S-phase cells ([16]; control 25%): 38% | percentage of cells in G1 ([16]; control 68%): 35% | selective cytotoxicity, number of cell lines for GI50 ([17]; approximately 60 cell lines tested, GI50): 32 cell lines | selective cytotoxicity, number of cell lines for TGI ([17]; approximately 60 cell lines tested, TGI): 18 cell lines | cytotoxicity pattern (COMPARE algorithm) ([17]; statistical analysis of selective toxicity pattern): matched that of several previously tested microtubule interactive agents, including the pattern generated by taxol | extent of tubulin polymerization at 0° C. ([18]; 10 μM drug, 0° C.): almost complete | temperature at which tubulin polymerization/assembly began ([18]; 10 μM drug, 10 μM tubulin, MAPs, GTP, control 37° C.): 0 °C | stability of assembly upon return of the mixture to 0° C. ([18]; 10 μM drug, control disassembled): remained stable | mechanism of action in regard to stabilization of microtubules ([18]; compared to taxol): superior to that of taxol
